# Where two headings read alike, the source gives them in different places.
# How the values were obtained:
# MALT1 = target: T1, MALT1 (Homo sapiens, UniProt Q9UDY8); test: Example IC50 and IC90 values of MALT1 inhibitors (blood concentration targets); assay type: cell-based
# T1 sequence (Q9UDY8 1-824): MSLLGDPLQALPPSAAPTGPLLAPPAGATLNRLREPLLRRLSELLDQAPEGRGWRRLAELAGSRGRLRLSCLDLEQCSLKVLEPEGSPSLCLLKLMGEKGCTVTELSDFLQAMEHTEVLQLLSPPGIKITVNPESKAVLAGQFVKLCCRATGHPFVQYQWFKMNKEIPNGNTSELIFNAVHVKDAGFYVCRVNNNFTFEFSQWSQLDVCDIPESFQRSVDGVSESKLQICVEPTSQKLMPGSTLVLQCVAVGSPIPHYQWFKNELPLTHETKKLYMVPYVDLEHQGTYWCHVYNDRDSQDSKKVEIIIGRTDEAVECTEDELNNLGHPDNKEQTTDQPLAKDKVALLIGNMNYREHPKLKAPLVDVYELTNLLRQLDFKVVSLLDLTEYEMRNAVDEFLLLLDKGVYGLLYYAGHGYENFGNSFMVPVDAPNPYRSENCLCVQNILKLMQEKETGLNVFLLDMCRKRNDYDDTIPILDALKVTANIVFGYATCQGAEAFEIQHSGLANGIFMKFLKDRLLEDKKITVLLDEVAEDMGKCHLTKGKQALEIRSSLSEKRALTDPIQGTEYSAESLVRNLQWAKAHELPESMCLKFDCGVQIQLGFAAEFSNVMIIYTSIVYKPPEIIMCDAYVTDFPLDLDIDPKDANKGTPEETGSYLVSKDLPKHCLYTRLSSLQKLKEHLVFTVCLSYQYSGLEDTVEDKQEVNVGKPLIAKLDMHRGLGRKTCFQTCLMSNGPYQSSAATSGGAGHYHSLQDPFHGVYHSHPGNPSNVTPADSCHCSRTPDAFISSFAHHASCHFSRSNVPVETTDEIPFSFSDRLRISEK
# Source text: In various embodiments, the plasma PK profile of the MALT1 inhibitor refers to a time over an IC50 blood concentration target following administration to the subject. As used herein, a “time over an IC50 blood concentration target” refers to a period of time following administration in which a concentration of the MALT1 inhibitor in the subject's blood is above the IC50 value.
# In various embodiments, the plasma PK profile of the MALT1 inhibitor refers to a time over an IC90 blood concentration target following administration to the subject. As used herein, a “time over an IC90 blood concentration target” refers to a period of time following administration in which a concentration of the MALT1 inhibitor in the subject's blood is above the IC90 value.
# splenic Tregs = test: Rat CIA model: splenic Treg levels; assay type: in vivo; details: for reduction in the Treg levels: CIA rats, in comparison to vehicle
# Description: (§1) For isolation of synovial fluid prior to study termination, animals were anesthetized and the skin on the hind limbs were separated to ensure exposure of knee joint. A small incision was made near the top of the knee joint and the articular cavity was rinsed with 60 μl phosphate-buffered saline (PBS) for 2 time and ˜50-60 μl synovial fluid was collected. The synovial fluid samples were spun down, and the supernatant stored at −80° C. prior to cytokine analysis. At study termination, plasma was prepared from whole blood and stored at −80° C. prior to cytokine analysis and measurement of total and anti-collagen IgG. Single cell suspensions were prepared from harvested spleens following standard methods and Treg frequencies measured by flow cytometry-based immunophenotyping of freshly isolated cells.
# Harvested spleens were homogenized in cold PBS and cellular debris removed by passing through a […] cell strainer. The cell suspension was centrifuged at 300×g for 5 min at 4° C. and the pellet was treated with 1×RBC lysis buffer per manufacturer's protocol (Thermofisher). The washed cell pellet was resuspended for a final concentration of 5-10×10^6 cells/ml and 100 μl of cell suspension was processed for immunophenotyping. […] Cells were washed with cold FACS wash buffer (BD) and fixed with 1×FoxP3/Transcription Factor Fixation Buffer (Thermofisher) for overnight at 4° C. […] Cells were washed 2-3× with the permeabilization and wash buffer as mentioned earlier, and finally resuspended in FACS wash buffer. Samples were acquired on a BD LSRFortessa flow cytometer and data analyzed using the FlowJo software (BD).
# [1] = system: rat collagen induced arthritis (CIA) model; test: Rat CIA model: plasma and synovial cytokines, anti-collagen and total IgG; assay type: in vivo
# Description: as §1
# All cytokine measurements were performed using commercially available kits and as per manufacturer's protocol. Supernatants from human whole blood and cellular assays were quantified using the human Proinflammatory Panel 1 (human) kit on a Sector Imager 6000 reader (Meso Scale Discovery, Rockville, MD). IL-17a was quantified using the V-Plex Human IL-17a kit on a Sector Imager 6000 reader (Meso Scale Discovery, Rockville, MD). Supernatants from rat whole blood assay were analyzed for IL-2 levels using the rat IL-2 Duoset ELISA kit (R&D). […]
# Tregs = test: Mouse accelerated Lupus model: Treg levels; assay type: in vivo, mice; details: 3 and 30 mg/kg daily
# Description: In this example, REO-528 MALT1 inhibitor was administered to mice of an accelerated Lupus Nephritis model (IFN-alpha accelerated) to investigate the impact of the administration of the MALT1 inhibitor. Mice were divided into 6 groups: 1) Naïve, 2) vehicle (weeks 13-18), 3) REO538 (3 mg/kg) daily administration weeks 13-18, 4) REO-538 (30 mg/kg) daily administration weeks 13-18, 5) REO-538 (30 mg/kg) daily administration weeks 15-18, and 6) BID dexamethasone (Dex) at 1 mg/kg for weeks 15-18. Groups 2 through 6 were also administered AAV encoding mIFNα to accelerate the lupus nephritis disease.
# [2] = system: rat collagen induced arthritis (CIA) model; test: Rat collagen-induced arthritis model: clinical score
# Source text: Adult female Lewis Rats (180-200 g body weight) were immunized subcutaneously with Type II bovine collagen/Incomplete Freund's Adjuvant emulsion on Day 0 and Day 7. On Day 14 rats were randomized based on clinical disease scores in different treatment groups. Rats received either once daily (q.d) dose of compounds via oral gavage or Vehicle (0.5% Carboxymethylcellulose-Na+0.5% Tween 80 in water, suspension) for 2 weeks. Naïve rats used as controls.
# CD4+ Total T-cells = test: Total CD4+ T-cell cytokine release assay; assay type: cell-based, human; details: CD4+ Total T-cells (a-CD3/-CD28)
# Description: All cytokine measurements were performed using commercially available kits and as per manufacturer's protocol. Supernatants from human whole blood and cellular assays were quantified using the human Proinflammatory Panel 1 (human) kit on a Sector Imager 6000 reader (Meso Scale Discovery, Rockville, MD). IL-17a was quantified using the V-Plex Human IL-17a kit on a Sector Imager 6000 reader (Meso Scale Discovery, Rockville, MD). Supernatants from rat whole blood assay were analyzed for IL-2 levels using the rat IL-2 Duoset ELISA kit (R&D). Plasma and synovial samples harvested from the rat CIA study were quantified for proinflammatory cytokines using the rat V-PLEX Proinflammatory Panel 2 kit (MSD).
# Jurkat-T cells = test: Jurkat IL-2 assay; details: Jurkat-T cells (a-CD3/-CD28/-CD2); readout IL-2
# Description: Cells were cultured in RPMI/10% FBS (Thermofisher) and maintained under a concentration of 3×10^6 cells/ml. MALT1i at different concentrations were stamped by ECHO onto 384-well plates (PerkinElmer, Waltham, MA) following which cells were plated in fresh media and incubated for 30 minutes before stimulation with soluble α-CD3/CD28/CD2 (ImmunoCult, Stemcell Technologies, Vancouver, Canada) for 24 h. Supernatants were collected as mentioned earlier and processed immediately for cytokine analysis or stored at −80° C. To assess viability of cells treated with compound, cells were lysed with CTG reagent (Promega, Madison, WI), and measured by luminometer.
# Total B cells = test: B-cell proliferation assay (BCR/CD40L); details: readout Proliferation
# Description: Freshly isolated total CD19^+ B-cells (Stemcell) from Human PBMCs were labeled with 2 μM Cell Trace Violet (ThermoFisher) and incubated for 5 min on a Nutator. […] Proliferation was assessed by flow cytometry.
# [3] = system: CD4+CD45RO+ Memory T-cells; test: Memory CD4+ T-cell cytokine release assay; details: Memory T-cells (a-CD3/-CD28/-CD2)
# Description: Memory CD4^+ T-cells were isolated from human donor PBMCs using an EasySep kit (Stemcell) and were rested overnight in complete RPMI media (Thermofisher) supplemented with 10% FBS (Atlanta Biologics), 10 mM HEPES, 2 mM GlutaMAX, 1 mM Na Pyruvate, and 1×MEM non-essential amino acids (Thermofisher).
# [4] = system: human monocyte-derived macrophages; test: Monocyte-derived macrophages stimulated with depleted zymosan
# Description: (§2) After differentiation, cells were harvested with Accutase solution (Stemcell Technologies) and incubated for 2 h at 37° C., 5% CO2 in 96-well plates.
# [5] = system: human monocyte-derived macrophages; test: Monocyte-derived macrophages stimulated with IgG immune complex; details: Macrophages (aIgG + IgG, immune-complex)
# Description: as §2
compound,measurement,setting,value
CN(C(=O)C1CCS(=O)(=O)CC1)[C@@H](c1ccc(Nc2cnc3cccnc3c2C2CC2)cc1)C(F)(F)F [REO-538],IC90,"MALT1; example values, blood concentration target, read-out: IC90",10.4 µM
same,IC90,"MALT1; higher dotted line of FIG. 13B, read-out: IC90 value (estimated)",~1 µg/mL
same,IC50,"MALT1; lower dotted line of FIG. 13B, read-out: estimated IC50 value (converted)",~0.376 µM
same,reduction in the Treg levels,splenic Tregs; 1 mg/kg dose,1%
same,reduction in the Treg levels,splenic Tregs; 10 mg/kg dose,49%
same,log10AUC value at ~40% reduction in Treg levels,splenic Tregs; rat CIA model,~2.0 μg*hr/mL
same,qualitative Treg impact (FIG. 11),splenic Tregs; rat CIA model,low Treg impact
same,IL-1beta and IL-6 in synovial fluid,[1]; 10 mg/kg and 10+3 mg/kg groups in comparison to the 3 mg/kg group,lower
same,KC/GRO and TNFα in synovial fluid,"[1]; each of the 3 mg/kg, 10 mg/kg and 10+3 mg/kg groups in comparison to vehicle",lower levels
same,Treg levels,Tregs,reduced Treg levels in a dose dependent manner
same,reduction in the clinical score,"[2]; 0.3 mg/kg dose, in comparison to the vehicle treatment",26%
same,reduction in the clinical score,"[2]; 1 mg/kg dose, in comparison to the vehicle treatment",59%
same,reduction in the clinical score,"[2]; 3 mg/kg dose, in comparison to the vehicle treatment",65%
same,reduction in the clinical score,"[2]; 10 mg/kg dose, in comparison to the vehicle treatment",80%
same,reduction in the clinical score,"[2]; Example 6: daily 3 mg/kg for 14 days, vs vehicle",25%
same,reduction in the clinical score,"[2]; Example 6: daily 10 mg/kg for 2 days followed by daily 3 mg/kg for 12 days, vs vehicle",43%
same,reduction in the clinical score,"[2]; Example 6: daily 10 mg/kg for 14 days, vs vehicle",70%
same,log10AUC value at ~50% reduction in the clinical score,[2]; rat CIA model,~1.2 μg*hr/mL
same,qualitative efficacy (FIG. 11),[2]; rat CIA model,high efficacy
CO[C@@H](C)c1c(NC(=O)Nc2ccnc(C(F)(F)F)c2)cnc2cc(Cl)nn12 [REO-981],Effect size (% Max. inhibition),CD4+ Total T-cells; readout IFNg,>95%
same,Effect size (% Max. inhibition),CD4+ Total T-cells; readout IL-2,>95%
same,Effect size (% Max. inhibition),CD4+ Total T-cells; readout TNFa,~85%
same,log10Ctrough value at ~40% reduction in Treg levels,"splenic Tregs; rat, in vivo",~3.3 ng/mL
same,Effect size (% Max. inhibition),Jurkat-T cells,>95%
same,Effect size (% Max. inhibition),Total B cells,~60%
same,Effect size (% Max. inhibition),[3]; readout IFNg,~80%
same,Effect size (% Max. inhibition),[3]; readout IL-2,>90%
same,Effect size (% Max. inhibition),[3]; readout IL-17,>90%
same,Effect size (% Max. inhibition),[3]; readout TNFa,~85%
same,log10Ctrough value at ~50% reduction in the clinical score,"[2]; rat, in vivo",~2.6 ng/mL
same,Effect size (% Max. inhibition),[4]; readout IL-6,>60%
same,Effect size (% Max. inhibition),[4]; readout TNFa,>75%
same,Effect size (% Max. inhibition),[5]; readout IL-6,>75%
same,Effect size (% Max. inhibition),[5]; readout TNFa,~74%
